We go through three compounds from US20020122768A1, “Stable radiopharmaceutical compositions and methods for preparation thereof” (priority 2000, published 2002).

Marks after values point to notes of the source that are not given here.

Holding throughout (assay type): physicochemical
The nature of series [1]: Solution stability of ^90Y-A at room temperature, RCP by radio-HPLC. The conditions noted are these: room temperature; for RCP (%) t = 0 h / RCP (%) t = 24 h / RCP (%) t = 48 h / RCP (%) t = 120 h / RCP (%) t = 144 h / RCP (%) t = 72 h / RCP (%) t = 148 h: ^90Y-A (~20 mCi); for RCP (%) change: ^90Y-A, t = 0 h to last time point. As to the method:
The advantage of using HPLC is that radio-impurities caused by radiolytic degradation can be separated from the radiopharmaceutical under optimized chromatographic conditions.
The initial RCP of a radiopharmaceutical is largely dependent on radiolabeling conditions such as pH, heating temperature and time. Once a radiopharmaceutical is prepared in high yield, the stability of the radiopharmaceutical composition is measured by the` RCP change of the radiopharmaceutical over a certain period of time.
Analytical Methods. HPLC method 1 used a HP-1100 HPLC system with a UV/visible detector (λ=220 nm), an IN-US radio-detector, and a Zorbax C18 column (4.6 mm×250 mm, 80 Å pore size).
The ITLC method used Gelman Sciences silica-gel ITLC paper strips and 1:1 mixture of acetone and saline as eluant.
(§1) The reaction mixture was heated at 100° C. for 10 min. A sample of the resulting solution was first diluted 20-fold with 2 mM DTPA solution (pH=5), and was then analyzed by HPLC (Method 1, injection volume=1-2 μL) and ITLC. […] The resulting solution was kept at room temperature for 6 days.
as §1, §1
The reaction mixture was heated at 100° C. for 10 min. A sample of the resulting solution was first diluted 20-fold with 2 mM DTPA solution (pH=5), and was then analyzed by HPLC (Method 1, injection volume 1-2 μL) and ITLC. […] The resulting solution was kept at room temperature for 7 days.
(§2) The reaction mixture was heated at 100° C. for 10 min. A sample of the resulting solution was first diluted 20-fold with 2 mM DTPA solution (pH=5), and was then analyzed by HPLC (Method 1, injection volume=1-2 μL) and ITLC. […] The resulting solution was kept at room temperature for 7 days.
as §2, §2

A short description of series [2]: Solution stability of ^90Y-A at −78° C., RCP by radio-HPLC. The conditions noted are these: for RCP (%) change: t = 0 h to 72 h. As for the experimental part: (§3) The integrity of a radiopharmaceutical is measured by the radiochemical purity (RCP) of the radiolabeled compound using ITLC or more preferably HPLC. The advantage of using HPLC is that radio-impurities caused by radiolytic degradation can be separated from the radiopharmaceutical under optimized chromatographic conditions. […] The radiopharmaceutical compositions of this invention are effective in maintaining the long-term stability of samples that have been frozen, thawed, and re-tested periodically for 7 days.
(§4) The initial RCP of a radiopharmaceutical is largely dependent on radiolabeling conditions such as pH, heating temperature and time. Once a radiopharmaceutical is prepared in high yield, the stability of the radiopharmaceutical composition is measured by the` RCP change of the radiopharmaceutical over a certain period of time. For comparison purposes, sodium gentisate or sodium ascorbate was often used as the reference since they have been used in various radiopharmaceutical formulations.
Analytical Methods. HPLC method 1 used a HP-1100 HPLC system with a UV/visible detector (λ=220 nm), an IN-US radio-detector, and a Zorbax C18 column (4.6 mm×250 mm, 80 Å pore size). The flow rate was 1 mL/min with the mobile phase being isocratic from 0 to 18 min using 87% solvent A (0.025 M ammonium acetate buffer, pH 6.8) and 13% solvent B (acetonitrile), followed by an isocratic wash using 40% of solvent A and 60% solvent B from 19 to 25 min.
The ITLC method used Gelman Sciences silica-gel ITLC paper strips and 1:1 mixture of acetone and saline as eluant. By this method, the radiolabeled compounds migrate to the solvent front while [^90Y]/^177Lu]colloid and [^90Y]/^177Lu]acetate remain at the origin.
^90Y-A was prepared using the procedure described in example 4. The resulting solution was the kept in a dry-ice box (−78° C.) for 3 days. Samples were analyzed at t=0, 24, 48, and 72 h.
To a lead-shielded clean 5 mL vial containing 100 μg of COMPOUND A and 2 mg of 3,4,5-trihydroxybenzoic acid (3,4,5-THBA) dissolved in 0.5 mL of 0.5 M ammonium acetate buffer (pH=8.0) was added 20 μL Of ^90YCl3 solution (˜20 mCi) in 0.05 N HCl. The reaction mixture was heated at 100° C. for 5 min. After cooling to room temperature, 0.5 mL of 3,4,5-THBA solution (20 mg/mL) in 0.5 M ammonium acetate buffer (pH=8.0) was added to the solution above. A sample of the resulting mixture was then diluted 20-fold with GA solution (10 mg/mL, pH=7.4), and analyzed by HPLC (Method 1, injection volume=1 μL) and ITLC. […] The resulting mixture was kept at −78° C. for 3 days. Samples were analyzed at t=0, 1, 2, and 3 days.
Synthesis of ^90Y-A was carried out according to the procedure described in example 12. After cooling to room temperature, 0.5 mL of 2,3,4-THBA solution (20 mg/mL) in 0.5 M ammonium acetate buffer (pH=8.0) was added to the solution containing ^90Y-A. The resulting mixture was kept at -78 °C for 3 days. Samples were analyzed at t=0, 1, 2, and 3 days.
Synthesis of ^90Y-A was carried out according to the procedure described in example 12. After cooling to room temperature, 0.5 mL of DSA solution (20 mg/mL) in 0.5 M ammonium acetate buffer (pH=8.0) was added to the solution containing ^90Y-A. The resulting mixture was kept at −78° C. for 3 days. Samples were analyzed at t=0, 1, 2, and 3 days.
Synthesis of ^90Y-A was carried out according to the procedure described in example 12. After cooling to room temperature, 0.5 mL of HABA solution (20 mg/mL) in 0.5 M ammonium acetate buffer (pH=8.0) was added to the solution containing ^90Y-A. The resulting mixture was kept at −78° C. for 3 days. Samples were analyzed at t=0, 1, 2, and 3 days. […]
To a lead-shielded clean 30 mL vial containing 1000 μg of COMPOUND A and 100 mg of sodium gentisate (GA) dissolved in 5 mL of 0.5 M ammonium acetate buffer (pH=7.5) was added ˜250 μL of ^90YCl3 solution (˜200 mCi) in 0.05 N HCl. The reaction mixture was heated at 100° C. for 15 min. […]

Series [3] in a line: Solution stability of ^90Y-B at −78° C., RCP by radio-HPLC. The conditions noted are these: ^90Y-B prepared with GA. As for the experimental part: as §3, §4
HPLC method 2 used a HP-1100 HPLC system with a UV/visible detector (λ=220 nm), an IN-US radio-detector, and a Zorbax C18 column (4.6 mm×250 mm, 80 Å pore size). The flow rate was 1 mL/min with a gradient mobile phase starting from 92% solvent A (0.025 M ammonium acetate buffer, pH 6.8) and 8% solvent B (acetonitrile) at 0 min to 90% solvent A and 10% solvent B at 18 min, followed by an isocratic wash using 40% of solvent A and 60% solvent B from 19 to 25 min.
The ITLC method used Gelman Sciences silica-gel ITLC paper strips and 1:1 mixture of acetone and saline as eluant. By this method, the radiolabeled compounds migrate to the solvent front while [^90Y]/^177Lu]colloid and [^90Y]/^177Lu]acetate remain at the origin. […]
The 0.5 M ammonium acetate buffer (pH 8.0) was first degassed under vacuum for 1-2 min. COMPOUND B and gentisic acid (sodium salt, GA) were dissolved in the degassed buffer to give a concentration of 100 μg/mL for COMPOUND B and 20 mg/mL for GA. The resulting solution was immediately degassed under vacuum for another 1-2 min. To a clean sealed 5 mL vial was added 1.0 mL of the degassed 0.5 M ammonium acetate buffer (pH 8.0) containing 100 μg COMPOUND B and 10 mg GA. The solution was degassed again under vacuum. Upon addition of ˜20 μL of ^90YCl3 solution (˜20 mCi) in 0.05 N HCl, the reaction mixture was heated at 100° C. for 5 min. After cooling to room temperature, a sample of the resulting solution was diluted 20-fold with saline containing gentisate (10 mg/mL), and was then analyzed by HPLC (Method 2, injection volume=1-2 μL) and ITLC. […] To the solution above was added 0.5 mL of sodium ascorbate solution (40 mg/mL in 0.5 M ammonium acetate buffer, pH=7.4). The resulting mixture was then kept in a dry-ice box (−78° C.) for 7 days. Samples were analyzed at t=0, 3 and 7 days.
The 0.5 M ammonium acetate buffer (pH 8.0) was first degassed under vacuum for 1-2 min. COMPOUND B and gentisic acid (sodium salt, GA) were dissolved in the degassed buffer to give a concentration of 100 μg/mL for COMPOUND B and 20 mg/mL for GA. The resulting solution was immediately degassed under vacuum for another 1-2 min. To a clean sealed 5 mL vial was added 1.0 mL of the degassed 0.5 M ammonium acetate buffer (pH 8.0) containing 100 μg COMPOUND B and 10 mg GA. The solution was degassed again under vacuum. Upon addition of ˜20 μL of ^90YCl3 solution (˜20 mCi) in 0.05 N HCl, the reaction mixture was heated at 100° C. for 5 min. After cooling to room temperature, a sample of the resulting solution was diluted 20-fold with saline containing gentisate (10 mg/mL), and was then analyzed by HPLC (Method 2, injection volume=1-2 μL) and ITLC. […] To the solution above was added 0.5 mL of 2,3,4-trihydroxybenzoic acid solution (20 mg/mL in 0.5 M ammonium acetate buffer, pH=6.5). The resulting mixture was then kept in a dry-ice box (−78° C.) for 7 days. Samples were analyzed at t=0, 3 and 7 days. […]

Setting [4] is: ^90Y-A, 10 mg stabilizer, dry-ice box (−78° C.).
The mark [5] stands for this setting: ^90Y-A, 10 mg stabilizer, −78° C.
[6] abbreviates: degassed, second stabilizer (20 mg AA, 20 mg DSA, 10 mg 2,3,4-THBA, 10 mg HABA) added post-labeling.
Setting [7] is: ^90Y-A prepared using 2 mg 3,4,5-THBA, second stabilizer (0.5 mL of 20 mg/mL) added after radiolabeling, −78° C.

Regarding `O=Cc1cc(O)c(O)c(O)c1` [3,4,5-THBAD, 3,4,5-trihydroxybenzaldehyde], in series [1] (2 mg stabilizer), the “RCP (%) t = 0 h” value is given as 95.5%, the “RCP (%) t = 24 h” value was 92.8%, the “RCP (%) t = 48 h” value came to 87.4% and the “RCP (%) t = 120 h” value is recorded as 84.9%. Besides, the “RCP (%) t = 144 h” value in series [1] (2 mg stabilizer) came out at 80.7%. Further, in series [1] (10 mg stabilizer), the “RCP (%) t = 0 h” value is 88.1* %, the “RCP (%) t = 24 h” value worked out at 82.3%, the “RCP (%) t = 72 h” value worked out at 77.3% and the “RCP (%) t = 148 h” value was 68.4%. In addition, the “RCP (%) change” value in series [1] (10 mg stabilizer) turned out to be 19.7%. Besides, in series [2] (setting [4]), the “RCP (%) t = 0 h” value was found to be 88.2%, the “RCP (%) t = 24 h” value is 86.4%, the “RCP (%) t = 48 h” value was determined as 87.3% and the “RCP (%) t = 72 h” value is 87.4%. In series [2] (setting [5]), the “RCP (%) change” value was determined as 0.8%.

As for `O=C([O-])c1cc(O)ccc1O.[Na+]` [GA, sodium gentisate, reference compound], in series [1] (2 mg stabilizer), the “RCP (%) t = 0 h” value is recorded as 94.6%, the “RCP (%) t = 24 h” value is recorded as 84.5%, the “RCP (%) t = 48 h” value is 80.7% and the “RCP (%) t = 120 h” value worked out at 71.2%. In addition, the “RCP (%) t = 144 h” value in series [1] (2 mg stabilizer) was found to be 69.7%. Besides, in series [1] (10 mg stabilizer), the “RCP (%) t = 0 h” value is given as 96.3%, the “RCP (%) t = 24 h” value is 92.6%, the “RCP (%) t = 72 h” value is listed as 83.8% and the “RCP (%) t = 148 h” value came to 77.3%. In addition, in series [1] (10 mg stabilizer), the “RCP (%) change” value stood at 19%. Further, in series [2] (setting [4]), the “RCP (%) t = 0 h” value stood at 96.4%, the “RCP (%) t = 24 h” value was 96.7%, the “RCP (%) t = 48 h” value is 95.4% and the “RCP (%) t = 72 h” value is reported as 94.6%. Also, the “RCP (%) change” value in series [2] (setting [5]) is 1.8%.

Regarding `Nc1ccc(C(=O)O)cc1O` [HABA, 3-hydroxy-4-aminobenzoic acid], in series [3] (setting [6]), the “RCP (%) t = 0” value was found to be 94.8%, the “RCP (%) t = 3 days” value is listed as 94.5% and the “RCP (%) t = 7 days” value is 94.0%. The “RCP (%) change” value in series [3] (second stabilizer added post-labeling, t = 0 to 7 days) was 0.8%. In series [2] (setting [7]), the “RCP (%) t = 0 h” value came to 98.5%, the “RCP (%) t = 24 h” value amounted to 98.3%, the “RCP (%) t = 48 h” value came out at 98.7% and the “RCP (%) t = 72 h” value is given as 98.1%. In addition, the “RCP (%) change” value in series [2] (^90Y-A prepared using 2 mg 3,4,5-THBA, second stabilizer added after radiolabeling, −78° C.) is 0.4%.
